Source: patent publication US8808721B2, “Bed bug attractants and methods for trapping bed bugs” (SpringStar Inc., priority 2011, dated 2014)

Experiments:
bed bugs [1] = assay: ST traps, kairomone components (Example 9); type: in vivo, Cimex lectularius; settings: combined with CO2 and heat, Location 4
Procedure: The kairomone composition of A1 was split into it components by chemical class, to determine if all components were necessary. Three new kairomone blends were tested (Table 3, Example 4). Blend A2 contained only skatole and androstenone (male boar compounds), and the adjuvants. Blend A3 contained all the ingredients from A1, but in slightly different ratios. Blend A4 contained only the fatty acid components and adjuvants. Four treatments were tested as follows: T0=CF1S+HW;T1=CF1+HW+A3;T2=CF1+HW+A2;T3=CF1+HW+A4
For treatment T0, the CO2 blend was made without skatole (CF1S, Table 1, Example 1). All treatments were tested using ST traps assembled as in Example 4.
A new location was used for testing kairomone components. Location 4 was an inhabited, 2-bedroom duplex in the suburbs of Seattle. Vacuum sampling estimated bed bug populations in each room at between 2,000 and 10,000 insects, which is considered heavily infested. Two people slept in the bedrooms on cots raised 50 cm off the carpet, which were then isolated from bed bugs in harborages by placing under each bed leg a plastic 16 oz drinking cup filled with propylene glycol or white pepper powder. […]

bed bugs [2] = assay: ST traps, adding skatole to carbon dioxide bait (Example 10); design: species or system Cimex lectularius; settings: in vivo
Text: Four ST traps from Example 3, baited with CF1, were paired with four ST traps baited with CF1S. Traps were placed in each of four corners of the location in Example 3. Traps were retrieved after one night. […] Additionally, all CF1 traps caught at least 2 bed bugs whereas half of the CF1S traps caught no bed bugs.

Compound: C[C@]12CCC(=O)C[C@@H]1CC[C@@H]1[C@@H]2CC[C@]2(C)C=CC[C@@H]12 [androstenone]
- attractiveness of kairomone blend or component to bed bugs (bed bugs [1]): acted synergistically with the fatty acid compounds to attract bed bugs

Compound: Cc1c[nH]c2ccccc12 [skatole, 3-methyl indole]
- effect of adding to the fermentative mixture on trap attractiveness (bed bugs [2]): increased trap attractiveness to bed bugs
